{"source": "paper PMC3908613", "about": "(Bioscience Reports, 2014)", "key": {"[1]": {"test_system": "BMDC", "assay": "Immunoblot of phosphorylated signalling proteins in stimulated BMDC", "type": "cell-based, C57BL/6 mice", "experimental": "BMDC (1.5×10^6 cells) were incubated in 6-well plates in RPMI supplemented with 0.3% FCS for 5 h at 37°C. […] NIH3T3 cells (2×10^4) were plated in 6-well plates for 48 h at 37°C. The cells were deprived of serum for 8 h in DMEM supplemented with 2 mg/ml BSA (Sigma) and then stimulated with 100 ng/ml EGF (epidermal growth factor; Peprotech) for 5 min at 37°C.\nCells were washed in cold PBS, lysed on ice for 10 min in lysis buffer (1% Triton X-100 containing 50 mM Tris–HCl (pH 7.5), 150 mM NaCl, 1 mM EGTA, 1 mM EDTA, 10 mM NaF, 1 mM sodium orthovanadate and 5 mM sodium pyrophosphate and protease inhibitors (Roche)) and centrifuged for 10 min at 20000 g at 4°C.\nBMDC (5×10^6 cells) were stimulated as described above. Lysates were pre-cleared with protein G Sepharose beads (Roche) for 30 min at 4°C. Paxillin was immunoprecipitated with 2 μg of anti-paxillin (Millipore) or with anti-IgG antibodies (Santa Cruz Biotechnology) for 1 h at 4°C and then incubated with 15 μl protein G Sepharose beads for 1 h at 4°C. Beads were washed four times with lysis buffer and paxillin was eluted with NuPage sample buffer (Invitrogen). The immunoprecipitated proteins were separated by electrophoresis on a 10% (w/v) NuPage gel and transferred onto a nitrocellulose membrane. The membrane was probed with anti-phospho Ser250-paxilin (kind gift of Luc Sabourin, McMaster University, Canada) or anti-paxillin antibodies."}, "[2]": {"test_system": "Rsks", "details": "cited from earlier work"}, "[3]": {"biological_target": "T1, Mst1 (Mus musculus, UniProt Q9JI11)", "T1 construct": "Mst1, Lok and Slk were immunoprecipated from 150 μg, 850 μg and 1 mg of cell lysates respectively; endogenous in cells; host or cells: mouse bone-marrow-derived dendritic cells (BMDC), immunoprecipitate", "T1 sequence (Q9JI11 1-487)": "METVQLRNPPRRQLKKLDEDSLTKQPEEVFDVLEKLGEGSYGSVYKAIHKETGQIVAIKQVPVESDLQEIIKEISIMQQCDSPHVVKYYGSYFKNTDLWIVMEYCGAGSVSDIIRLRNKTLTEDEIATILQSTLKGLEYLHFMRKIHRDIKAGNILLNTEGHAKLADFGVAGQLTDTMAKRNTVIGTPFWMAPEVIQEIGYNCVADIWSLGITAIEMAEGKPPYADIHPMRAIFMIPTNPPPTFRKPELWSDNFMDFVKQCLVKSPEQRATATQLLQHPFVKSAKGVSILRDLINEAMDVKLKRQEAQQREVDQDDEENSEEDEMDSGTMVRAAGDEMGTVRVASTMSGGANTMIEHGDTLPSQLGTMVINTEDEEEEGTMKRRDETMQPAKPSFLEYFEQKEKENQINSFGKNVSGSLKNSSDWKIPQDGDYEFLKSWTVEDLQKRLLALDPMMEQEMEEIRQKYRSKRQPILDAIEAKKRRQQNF", "assay": "Activity of Mst1 immunoprecipitated from BMDC", "type": "biochemical, C57BL/6 mice", "details": "immunoprecipitates treated with 1 μM D1870; resting and LPS-stimulated DC", "experimental": "(§1) Equal numbers of BMDC (1×10^7/dish) were incubated in 15 cm dishes in RPMI supplemented with 0.3% FCS for 3 h at 37°C then incubated for 30 min with or without 50 ng/ml LPS. The cells were washed once in cold PBS and lysed in the lysis buffer described above. Mst1, Lok and Slk were immunoprecipated from 150 μg, 850 μg and 1 mg of cell lysates respectively with 2 μg of anti-MST1 (Cell Signalling), anti-Slk (Bethyl) or anti-Lok (Bethyl) or control IgG (Santa Cruz Biotech) coupled to G-protein Sepharose (Amersham) for 1 h at 4°C. […] Kinase assays were performed as described above.\n(§2) A combination of SILAC and nucleotide acyl\n(§3) Alexander J. EDGAR*, Matthias TROST†, Colin WATTS*1 and Rossana ZARU*1\n(§4) *Division of Cell Signalling and Immunolog y, University of Dundee, Dow Street, Dundee DD1 5EH, U.K., and †MRC Protein Phosphor ylation and Ubiquitylation Unit, College of Life Sciences, University of Dundee, Dow Street, Dundee DD1 5EH, U.K.\n(§5) Supplementary Table S1 is available at http://www.bioscirep.\n(§6) Mst1, Lok and Slk activities in DC either unstimulated or stimulated with LPS (50 ng/ml) for 30 min at 37 ◦ C. Immuno- […]\n(§7) of triplicate stimulations. *P < 0.05, **P < 0.01, ***P < 0.001, ns not signiﬁcant.\n(§8) 1 Correspondence may be addressed to either of these authors (email c.watts@dundee.ac.uk or r.zaru@dundee.ac.uk). […]"}, "[4]": {"biological_target": "T2, Lok (Mus musculus, UniProt O55098)", "T2 construct": "Mst1, Lok and Slk were immunoprecipated from 150 μg, 850 μg and 1 mg of cell lysates respectively; endogenous in cells; host or cells: mouse bone-marrow-derived dendritic cells (BMDC), immunoprecipitate", "T2 sequence (O55098 whole entry)": "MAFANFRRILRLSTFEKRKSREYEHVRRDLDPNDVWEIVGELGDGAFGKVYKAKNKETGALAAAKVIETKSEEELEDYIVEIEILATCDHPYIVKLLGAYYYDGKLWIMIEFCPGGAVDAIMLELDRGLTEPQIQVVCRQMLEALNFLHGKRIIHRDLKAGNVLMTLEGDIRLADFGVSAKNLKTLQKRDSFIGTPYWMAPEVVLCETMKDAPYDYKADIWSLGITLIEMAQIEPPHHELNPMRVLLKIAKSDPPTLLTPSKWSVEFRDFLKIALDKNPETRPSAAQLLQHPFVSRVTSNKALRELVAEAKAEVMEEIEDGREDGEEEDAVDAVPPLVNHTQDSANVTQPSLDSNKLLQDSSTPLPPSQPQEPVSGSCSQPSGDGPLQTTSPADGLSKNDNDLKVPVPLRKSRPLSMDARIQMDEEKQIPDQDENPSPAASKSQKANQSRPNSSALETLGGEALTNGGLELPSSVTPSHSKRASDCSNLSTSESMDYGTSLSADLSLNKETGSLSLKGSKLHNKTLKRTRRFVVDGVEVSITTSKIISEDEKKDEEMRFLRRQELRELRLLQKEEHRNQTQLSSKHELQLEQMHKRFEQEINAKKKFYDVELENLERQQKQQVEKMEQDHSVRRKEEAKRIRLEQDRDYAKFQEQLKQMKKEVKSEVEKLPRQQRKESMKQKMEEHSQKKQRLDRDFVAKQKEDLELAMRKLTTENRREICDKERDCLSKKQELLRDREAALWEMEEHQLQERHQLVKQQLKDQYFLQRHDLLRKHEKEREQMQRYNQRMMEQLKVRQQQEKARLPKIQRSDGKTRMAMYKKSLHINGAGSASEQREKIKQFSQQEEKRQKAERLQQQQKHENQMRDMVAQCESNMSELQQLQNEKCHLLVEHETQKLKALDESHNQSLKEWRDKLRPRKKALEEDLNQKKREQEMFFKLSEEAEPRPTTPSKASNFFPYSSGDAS", "assay": "Activity of Lok immunoprecipitated from BMDC", "type": "biochemical, C57BL/6 mice", "details": "immunoprecipitates treated with 1 μM D1870; resting and LPS-stimulated DC", "experimental": "as §1, §2, §3, §4, §5, §6, §7, §8"}, "[5]": {"biological_target": "T3, Rsk2 (Mus musculus, UniProt P18654)", "T3 construct": "recovered on streptavidin beads following desthiobiotin-ATP labelling of DC lysates including Rsk2, Erk1/2 and p38; endogenous in cells; host or cells: mouse spleen-derived dendritic cells (SDC), lysate", "T3 sequence (P18654 whole entry)": "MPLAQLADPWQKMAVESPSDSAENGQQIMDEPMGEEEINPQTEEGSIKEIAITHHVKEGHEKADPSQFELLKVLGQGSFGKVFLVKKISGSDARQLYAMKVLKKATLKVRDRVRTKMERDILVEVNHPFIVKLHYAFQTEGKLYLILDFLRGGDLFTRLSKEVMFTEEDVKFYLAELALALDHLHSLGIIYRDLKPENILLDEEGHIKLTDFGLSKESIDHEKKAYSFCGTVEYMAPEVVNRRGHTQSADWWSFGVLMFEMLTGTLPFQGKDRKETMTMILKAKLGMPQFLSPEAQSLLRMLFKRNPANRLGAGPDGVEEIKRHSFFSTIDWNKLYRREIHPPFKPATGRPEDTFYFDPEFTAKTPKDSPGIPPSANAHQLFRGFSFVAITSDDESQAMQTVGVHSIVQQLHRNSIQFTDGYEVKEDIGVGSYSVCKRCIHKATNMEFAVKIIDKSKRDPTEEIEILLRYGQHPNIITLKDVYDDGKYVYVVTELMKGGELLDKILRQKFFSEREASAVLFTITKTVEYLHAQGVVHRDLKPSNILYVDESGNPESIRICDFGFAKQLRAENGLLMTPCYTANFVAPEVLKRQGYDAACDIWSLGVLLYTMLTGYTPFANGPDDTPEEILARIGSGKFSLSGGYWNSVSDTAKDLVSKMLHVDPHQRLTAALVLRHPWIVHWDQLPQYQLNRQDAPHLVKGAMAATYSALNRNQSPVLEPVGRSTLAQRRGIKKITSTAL", "assay": "Desthiobiotin-ATP probe capture on streptavidin beads, Western blot", "type": "binding, C57BL/6 mice", "details": "10 μM inhibitor, DC lysate"}, "[6]": {"biological_target": "T4, Slk (Mus musculus, UniProt O54988)", "T4 construct": "Mst1, Lok and Slk were immunoprecipated from 150 μg, 850 μg and 1 mg of cell lysates respectively; endogenous in cells; host or cells: mouse bone-marrow-derived dendritic cells (BMDC), immunoprecipitate", "T4 sequence (O54988 whole entry)": "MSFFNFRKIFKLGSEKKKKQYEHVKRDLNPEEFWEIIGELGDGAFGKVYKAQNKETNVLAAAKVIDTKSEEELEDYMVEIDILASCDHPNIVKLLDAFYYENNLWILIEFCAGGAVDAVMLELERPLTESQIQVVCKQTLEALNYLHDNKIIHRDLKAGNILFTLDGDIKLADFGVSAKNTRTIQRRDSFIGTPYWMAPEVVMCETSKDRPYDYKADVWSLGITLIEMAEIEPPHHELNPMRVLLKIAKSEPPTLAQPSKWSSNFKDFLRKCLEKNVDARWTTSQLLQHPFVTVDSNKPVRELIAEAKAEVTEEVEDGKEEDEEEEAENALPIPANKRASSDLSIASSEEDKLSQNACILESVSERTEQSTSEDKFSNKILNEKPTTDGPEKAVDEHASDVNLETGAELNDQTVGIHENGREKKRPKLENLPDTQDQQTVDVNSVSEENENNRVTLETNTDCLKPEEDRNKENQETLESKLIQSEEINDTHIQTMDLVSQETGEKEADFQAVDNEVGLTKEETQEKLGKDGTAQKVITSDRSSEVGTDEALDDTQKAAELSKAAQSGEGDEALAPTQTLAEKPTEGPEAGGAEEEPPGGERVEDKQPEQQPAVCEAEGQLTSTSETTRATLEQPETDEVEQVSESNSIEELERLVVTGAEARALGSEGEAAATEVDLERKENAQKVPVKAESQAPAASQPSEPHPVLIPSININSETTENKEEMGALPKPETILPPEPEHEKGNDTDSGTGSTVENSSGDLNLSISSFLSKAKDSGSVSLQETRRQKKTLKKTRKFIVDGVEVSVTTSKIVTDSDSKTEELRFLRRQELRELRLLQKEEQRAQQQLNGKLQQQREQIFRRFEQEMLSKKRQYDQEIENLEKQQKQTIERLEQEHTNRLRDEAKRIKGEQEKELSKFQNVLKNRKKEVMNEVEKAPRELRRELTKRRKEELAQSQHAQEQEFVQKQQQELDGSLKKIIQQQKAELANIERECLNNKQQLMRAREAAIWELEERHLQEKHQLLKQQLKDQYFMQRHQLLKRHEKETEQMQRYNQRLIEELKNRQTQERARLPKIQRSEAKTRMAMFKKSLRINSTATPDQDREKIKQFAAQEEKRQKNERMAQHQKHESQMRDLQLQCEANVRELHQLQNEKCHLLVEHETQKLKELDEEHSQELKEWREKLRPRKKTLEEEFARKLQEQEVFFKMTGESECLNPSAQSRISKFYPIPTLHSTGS", "assay": "Activity of Slk immunoprecipitated from BMDC", "type": "biochemical, C57BL/6 mice", "details": "immunoprecipitates treated with 1 μM D1870; resting and LPS-stimulated DC", "experimental": "as §1, §2, §3, §4, §5, §6, §7, §8"}, "[7]": {"test_system": "Aurora B", "details": "cited from earlier work"}}, "data": [{"smiles": "CC(C)CCN1c2nc(Nc3cc(F)c(O)c(F)c3)ncc2N(C)C(=O)C1C", "note": "(stereo not shown) [D1870, BI-D1870]", "values": [{"measurement": "Concentration blocking phosphorylation of Bad (Ser112)", "setting": "[1]; LPS 50 ng/ml, 30 min", "value": "≤ 1", "unit": "µM"}, {"measurement": "Concentration blocking phosphorylation of filamin A (Ser2152)", "setting": "[1]; LPS 50 ng/ml, 30 min", "value": "≤ 1", "unit": "µM"}, {"measurement": "Erk1/2, p38 or JNK1/2 phosphorylation", "setting": "[1]; LPS 50 ng/ml, 30 min", "value": "Neither inhibitor had any effect"}, {"measurement": "GSK3α/β phosphorylation", "setting": "[1]; LPS 50 ng/ml, 30 min", "value": "more potent"}, {"measurement": "PKB phosphorylation at Ser473 and Thr308", "setting": "[1]; LPS 50 ng/ml, 30 min", "value": "complete block"}, {"measurement": "Phosphorylation of MSK1 and MK2", "setting": "[1]; LPS 50 ng/ml, 30 min", "value": "not affected"}, {"measurement": "phosphorylation of IκBα", "setting": "[1]; LPS 50 ng/ml, 30 min", "value": "neither D1870 nor BIX affected"}, {"measurement": "phosphorylation of ERM proteins", "setting": "[1]; LPS, 30 min", "value": "substantial decrease"}, {"measurement": "phosphorylation of paxillin on Ser250", "setting": "[1]; LPS, 30 min, paxillin immunoprecipitated", "value": "prevented its phosphorylation at low concentrations"}, {"measurement": "PKB phosphorylation", "setting": "[1]; MIP1α 100 ng/ml, 5 min, 4 μM D1870", "value": "impaired"}, {"measurement": "IC50", "setting": "[2]", "value": "10 to 30", "unit": "nM"}, {"measurement": "kinase activity of Mst1 immunoprecipitated from DC", "setting": "[3]", "value": "substantially inhibited"}, {"measurement": "kinase activity of Lok immunoprecipitated from DC", "setting": "[4]", "value": "substantially inhibited"}, {"measurement": "capture of Rsk2 on streptavidin beads", "setting": "[5]", "value": "blocked"}, {"measurement": "kinase activity of Slk immunoprecipitated from DC", "setting": "[6]", "value": "significantly blocked"}, {"measurement": "IC50", "setting": "[7]", "value": 340, "unit": "nM"}]}]}
